Results as given in the supplement of paper PMC10307832.

Assays:
Assay in all cases: relative viability (nuclei count vs DMSO), 5 days (fraction); higher = more cells survive
CX-5461 + Phenformin = compound: Cc1cnc(CNC(=O)c2c(=O)c3ccc(N4CCCN(C)CC4)nc3n3c2sc2ccccc23)cn1 [CX-5461] + N=C(N)NC(=N)NCCc1ccccc1 [Phenformin] (partner 250 µM)
Procedure, shortened: (§1)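 A single step with final 0.05% Triton X-100, 1% formaldehyde and 1 ug/ml Hoechst fixed the cells and stained nuclei 5 days after treatment. Lung cancer cell lines in 1536-well plates had been treated by pin tool the day after seeding with one drug alone or a fixed anchor-drug dose plus five library-drug doses (not always all listed) in √10 steps, and nuclei were counted on 4× images. Relative viability is the ratio of nuclei in treated wells to nuclei in vehicle wells, taken as the median of duplicate plates.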

CX-5461 + Luminespib = compound: Cc1cnc(CNC(=O)c2c(=O)c3ccc(N4CCCN(C)CC4)nc3n3c2sc2ccccc23)cn1 [CX-5461] + CCNC(=O)c1noc(-c2cc(C(C)C)c(O)cc2O)c1-c1ccc(CN2CCOCC2)cc1 [Luminespib] (partner 0.01 µM)
Procedure, shortened: as §1

CX-5461 + Decitabine = compound: Cc1cnc(CNC(=O)c2c(=O)c3ccc(N4CCCN(C)CC4)nc3n3c2sc2ccccc23)cn1 [CX-5461] + Nc1ncn([C@H]2C[C@H](O)[C@@H](CO)O2)c(=O)n1 [Decitabine] (partner 2 µM)
Procedure, shortened: as §1

IMD-0354 + Linsitinib = compound: O=C(Nc1cc(C(F)(F)F)cc(C(F)(F)F)c1)c1cc(Cl)ccc1O [IMD-0354] + C[C@]1(O)C[C@@H](c2nc(-c3ccc4ccc(-c5ccccc5)nc4c3)c3c(N)nccn32)C1 [Linsitinib] (partner 1 µM)
Procedure, shortened: as §1

Cell Line | relative viability (CX-5461 + Phenformin; first compound 0.01 µM) | relative viability (CX-5461 + Phenformin; first compound 0.03162 µM) | relative viability (CX-5461 + Phenformin; first compound 0.1 µM) | relative viability (CX-5461 + Phenformin; first compound 0.3162 µM) | relative viability (CX-5461 + Phenformin; first compound 1 µM) | relative viability (CX-5461 + Luminespib; first compound 0.01 µM) | relative viability (CX-5461 + Luminespib; first compound 0.03162 µM) | relative viability (CX-5461 + Luminespib; first compound 0.1 µM) | relative viability (CX-5461 + Luminespib; first compound 0.3162 µM) | relative viability (CX-5461 + Luminespib; first compound 1 µM) | relative viability (CX-5461 + Decitabine; first compound 0.01 µM) | relative viability (CX-5461 + Decitabine; first compound 0.03162 µM) | relative viability (CX-5461 + Decitabine; first compound 0.1 µM) | relative viability (CX-5461 + Decitabine; first compound 0.3162 µM) | relative viability (CX-5461 + Decitabine; first compound 1 µM) | relative viability (IMD-0354 + Linsitinib; first compound 0.04 µM) | relative viability (IMD-0354 + Linsitinib; first compound 0.1265 µM) | relative viability (IMD-0354 + Linsitinib; first compound 0.4 µM) | relative viability (IMD-0354 + Linsitinib; first compound 1.265 µM) | relative viability (IMD-0354 + Linsitinib; first compound 4 µM)
NCI-H647 | 0.518 | 0.575 | 0.401 | 0.364 | 0.24 | 0.192 | 0.163 | 0.169 | 0.146 | 0.108 | 0.443 | 0.461 | 0.325 | 0.417 | 0.15 | 1.36 | 1.1 | 0.515 | 0.276 | 0.158
NCI-H2023 | 0.374 | 0.335 | 0.194 | 0.294 | 0.0701 | 0.675 | 0.318 | – | 0.314 | 0.0698 | 0.223 | 0.178 | – | 0.178 | 0.0728 | 0.81 | 0.569 | 0.558 | 0.197 | 0.121
NCI-H520 | 0.577 | 0.503 | 0.717 | 0.303 | 0.36 | 0.195 | 0.194 | 0.202 | 0.262 | 0.218 | 0.529 | 0.52 | 0.483 | 0.465 | 0.362 | 1.16 | 0.816 | 0.469 | 0.187 | 0.179
RERF-LC-KJ | 0.448 | 0.457 | 0.292 | 0.41 | 0.386 | 1.28 | 1.24 | 1.19 | 1.27 | 0.687 | 0.686 | 0.677 | 0.381 | 0.528 | 0.41 | 0.948 | 0.944 | 0.66 | 0.298 | 0.208
A-427 | 0.338 | 0.348 | 0.36 | – | 0.223 | 0.965 | 0.899 | 0.953 | – | 0.721 | 0.593 | 0.603 | 0.52 | 0.269 | 0.481 | 1.21 | 1.1 | 0.986 | 0.719 | 0.115
NCI-H441 | 0.758 | 1.05 | 0.779 | 0.86 | 0.305 | 0.322 | 0.421 | 0.323 | 0.444 | 0.239 | 0.234 | 0.206 | 0.214 | 0.275 | 0.191 | 0.485 | 0.659 | 0.31 | 0.234 | 0.22
NCI-H1792 | 0.387 | 0.198 | 0.114 | 0.401 | 0.111 | 0.57 | 0.48 | 0.432 | 0.458 | 0.497 | 0.664 | 0.67 | 0.646 | 0.542 | 0.534 | 0.627 | 0.424 | 0.906 | 0.471 | 0.293
SW 1573 | 0.421 | 0.369 | 0.151 | 0.303 | 0.121 | 0.295 | 0.163 | 0.164 | 0.187 | 0.0965 | 0.474 | 0.41 | 0.114 | 0.392 | 0.214 | 0.764 | 0.697 | 0.589 | 0.493 | 0.102
PC-3 [JPC-3] | 0.479 | 0.449 | 0.467 | 0.467 | 0.455 | 0.726 | 0.708 | 0.62 | 0.635 | 0.721 | 0.801 | – | 0.842 | 0.801 | 0.77 | 0.975 | 0.945 | 0.826 | 0.734 | 0.251
EMC-BAC-2 | 0.507 | 0.518 | 0.399 | 0.299 | 0.271 | 1.14 | 1.27 | 1.15 | 1.11 | 0.756 | 0.97 | 0.994 | 0.709 | 0.655 | 0.473 | 0.909 | 0.825 | 0.549 | 0.801 | 0.207
NCI-H1395 | 0.473 | 0.426 | 0.437 | 0.341 | 0.396 | 0.669 | 0.596 | 0.677 | 0.667 | 0.644 | 0.764 | 0.673 | 0.805 | 0.653 | 0.532 | 1.02 | 1.28 | 0.99 | 0.395 | 0.42
NCI-H2126 | 0.576 | 0.542 | 0.513 | 0.589 | 0.407 | 0.883 | 0.848 | 0.908 | 0.847 | 0.411 | 0.573 | 0.559 | 0.618 | 0.64 | 0.567 | 0.644 | 0.685 | 0.715 | 0.577 | 0.316
NCI-H3122 | 0.385 | 0.343 | 0.316 | 0.378 | 0.248 | 0.0935 | 0.0696 | 0.096 | 0.0801 | 0.0781 | 0.407 | 0.387 | 0.354 | 0.515 | 0.417 | 1.06 | 1.12 | 0.742 | 0.573 | 0.15
NCI-H1975 | 0.44 | 0.401 | 0.377 | 0.415 | 0.2 | 0.353 | 0.249 | 0.43 | 0.191 | 0.202 | 0.404 | 0.36 | 0.424 | 0.447 | 0.276 | 1.15 | 0.938 | 0.517 | 0.178 | 0.207
LU99A | 0.911 | 0.855 | 0.821 | 0.528 | 0.21 | 0.187 | 0.218 | 0.235 | 0.241 | 0.242 | 0.925 | 0.958 | 0.923 | 0.594 | 0.79 | 0.553 | 0.527 | 0.398 | 0.452 | 0.147
NCI-H2347 | 0.546 | 0.361 | 0.337 | 0.338 | 0.397 | 0.563 | 0.413 | 0.753 | 0.327 | 0.341 | 0.628 | 0.638 | 0.625 | 0.604 | 0.589 | 1.04 | 1.08 | 0.824 | 0.511 | 0.447
